Reference: patent US20030021796A1, “Method of enhancing T cell immunity by selection of antigen specific T cells” (priority 2001, published 2003)
“Also recorded” adds a separate entry of the source. Residues, ends and D or L forms follow the SMILES beside them.

Assays:
[1] = system: transgenic CD4^+ thymocytes; test: Positive selection of CD4^+ thymocytes after peptide injection into TCR^TgTCRα^−H2-M^−Ii^− mice (flow cytometry of thymus); assay type: in vivo, mouse; details: for effect on thymic selection: exogenous peptides without agonist properties; for positive selection of transgenic thymocytes: i.p., non-deleting dose (20 μg); for percentage of CD4^+ single positive cells (thymus): 3 days after peptide injection
Excerpt: Mice. The TCR genes were cloned from T cell hybridoma specific for analogs of the PCC(43-58) peptide and expressed in VA-hCD2 cassette (Ignatowicz et al., 1997; Kraj et al., 2001; Zhumabekov et al., 1995). All TCR transgenic mice were made by co-microinjection of the respective […] and TCRβ constructs into fertilized eggs of F1 (C57BL/6×CBA/Ca) mice. TCR Tg mice were crossed to C57B16/TCRα^− (Jackson Laboratory, ME) mice and to mice deficient in H2-M (kindly provided by E. Bikoff and R. Germain) and Ii (kindly provided by L. van Kaer) to obtain TCR^TgTCRα^− H2-M^−Ii^−.
(§1) Flow cytometry analysis. Monoclonal antibodies specific for CD4(RM4-5), CD8(53-6.7), VβB8(F23.1), CD69(H1.2F3), CD44(IM7) and CD62L(MEL-14) were purchased from PharMingen (San Diego, Calif.) and used according to manufacturer's recommendations. Cells were analyzed using a FACSCalibur instrument (Becton Dickinson, San Jose, Calif.) and CellQuest software. For intracellular stain cells were first stained for CD4 and CD8, fixed in 2% paraformaldehyde, permeabilized in 0.1% Tween-20 and stained with anti-bcl-2 antibody (Pharmingen) according to manufacturer instruction.
(§2) Peptide injections and surgical procedures. TCR^TgTCRα^− and TCR^TgTCRαH2-M^−Ii^− were injected i.p. with agonist and control peptides dissolved in PBS. After indicated time mice were sacrificed, thymus and lymph nodes were collected and single cell suspensions were prepared. Pups were injected with 2 μg of peptide subcutaneously 12-24 hours after birth and thymi were transplanted into recipient mice 24 hours after injection. 5-8 week old TCR^TgTCRα^− H2-M^−Ii^− mice were used for thymectomy or as thymic transplant recipients. Surgical procedures were performed as described (Coligan et al., 1997). Mice were handled according with the institutional guidance.

[2] = system: OT-II transgenic thymocytes; test: Selection of OT-II transgenic thymocytes in OT-II TCRα^−→TCRα^−H2M^−Ii^− chimeras after peptide injection; assay type: in vivo, mouse
Excerpt: OT-II agonist peptide may be used for positive selection of transgenic CD4^+ cells. Injection of a low dose of agonist peptides restores positive selection of OT-II transgenic CD4^+ T cells in […] →TCRα^−2-M^−Ii^− chimeras. OT-II transgenic mice (C57BL/6TgN(TcrOva)) express a Class II restricted T cell receptor for ovalbumin residues 323-339 in the context of H-2^b. To determine if the experimental approach can be applied to other transgenic CD4^+ T cells, radiation chimeras were generated where TCRα^−H2-H2-M^−Ii^− mice were lethally irradiated and reconstituted with fetal liver from OT-II^TgTCRα^− mice. In these chimeras the development of OT-II^TgTCRα^− thymocytes is arrested at the CD4^+CD8^+ stage due to the lack of endogenous selecting peptides. After 8 weeks chimeras were injected once with different doses of the agonist Ova(323-339) peptide, which is a peptide present in the ovalbumin protein.

[3] = system: TCR^TgTCRα^− lymph node cells; test: Proliferation of TCR transgenic lymph node cells stimulated with agonist peptides ([3H]thymidine incorporation); assay type: cell-based, mouse; details: for agonist potency / agonist properties: in vitro stimulation of transgenic T cells; for recognition by the transgenic TCR / stimulation of transgenic cells: peptides presented by irradiated C57BL6 splenocytes
Method: Antigen response of TCR transgenic cells. Proliferation of lymph node cells isolated from TCR^TgTCRα^−and TCR^TgTCRα^−2-M^−Ii^− mice injected with the selecting peptide was measured in response to antigen. Response of the TCR^TgTCRα^− lymph node cells to different agonist peptides was measured by proliferation assay in a 96-well plate. 10^5 responder cells were stimulated with peptides presented by 5×10^5 irradiated C57BL6 splenocytes. Agonist peptides were used at concentrations of 0.01, 0.1, 0.5, 1.0, 2.5, 5.0, 10.0 and 20.0 μM. After 3 days cells were pulsed with 1 μCi of [^3H]thymidine added to each well and after 18 hours thymidine incorporation was measured. The sequences of peptides used were: PCC50V (AEGFSYTVANKNKGIT), PCC50L (AEGFSYTLANKNKGIT), PCC50V54A (AEGFSYTVANKAKGIT), PCC46A49A50V54A (AEGASYAVANKAKGIT), PCC50F54A (AEGFSYTFANKAKGIT), neutral ceramidase (AGFFQYTLYILASEG) and IgGVH (NADFKTPATLTVDKA). All peptides were synthesized by FMOC (fluorenyl methoxycarbonyl) chemistry and purified by reversed-phase high-performance liquid chromatography. To compare the antigenic response of CD4^+ TCR Tg cells lymph node cells were collected from TCR^TgTCRα^− and TCR^TgTCRα^−H2-M^−Ii^− mice two weeks after peptide injection. Single cell suspensions were prepared and CD4^+ cells were sorted using magnetic beads coated with anti CD4 antibodies (MACS). Purity of sorted cells exceeded 85%. 2×10^4 of purified CD4^+ cells were used in proliferation assay. Cells were stimulated with increasing concentrations of agonist peptides presented by APCs from wild type or H2-M^−Ii^− mice. IgGVH derived peptide (20 μM) was used as a negative control. Peptides were presented by irradiated splenocytes from a C57BL6 mouse. Proliferation was measured after 3 days by thymidine incorporation by pulsing cells with 1 μCi of [^3H] thymidine for 18 hours. Antagonism assay was done by prepulsing 5×10^5 antigen-presenting cells per well for 2 hr. with 5 μM of the antigenic peptide PCC50V54A, washing, and then exposing them to varying concentrations of peptide analogs with 2×10^4 purified CD4^+ TCR^Tg lymphocytes as responder cells (Lyons et al., 1996). For antagonism assays the percent of proliferation inhibition was calculated as 100-100*(thymidine incorporation in the presence of antagonist/thymidine incorporation in the absence of antagonist) (Lyons et al., 1996).

transgenic thymocytes = test: Negative selection of transgenic thymocytes after i.p. peptide injection into TCR^TgTCRα^− mice (wild type A^b); assay type: in vivo, mouse; details: 24 hours; for negative selection / deletion of transgenic thymocytes: 200 μg/mouse i.p.
Method: as §1, §2
Characterization of peptide agonists for the PCC specific transgenic αβTCR. To examine the role of peptides during positive selection in vivo, the inventors generated transgenic mice expressing class II restricted TCR specific for analogs of a pigeon cytochrome C peptide PCC(43-58) presented by the A molecule (Kraj et al., 2001). This receptor recognizes analogs of PCC(43-58) in which aspartic acid in position 50 is replaced by amino acids with neutral/hydrophobic (PCC50V, PCC50V54A, PCC46A49A50V54A, PCC50L, PCC50F) side chains (FIG. 6 and FIG. 9). The TCR transgenic mice were backcrossed to C57BL6 TCRα^− knockout mice so that almost all T cells expressing transgenic TCR become CD4^+ T cells (FIG. 4A and FIG. 10A). Initially, the inventors examined the capacity of agonist peptides to induce negative selection of transgenic T cells.

lymph node cells = test: Repopulation of peripheral lymph nodes in peptide-injected TCR^TgTCRα^−H2-M^−Ii^− mice; assay type: in vivo, mouse; details: for percentage of CD4^+ positive cells (lymph node): analyzed 12 days after injection
Method: as §1, §2

[4] = system: peptide selected CD4^+ cells; test: Antigen response (proliferation) of lymph node CD4^+ cells from peptide-injected TCR^TgTCRα^−H2-M^−Ii^− mice; assay type: cell-based, mouse
Method: Antigen response of TCR transgenic cells. Proliferation of lymph node cells isolated from TCR^TgTCRα^−and TCR^TgTCRα^−2-M^−Ii^− mice injected with the selecting peptide was measured in response to antigen. Response of the TCR^TgTCRα^− lymph node cells to different agonist peptides was measured by proliferation assay in a 96-well plate. 10^5 responder cells were stimulated with peptides presented by 5×10^5 irradiated C57BL6 splenocytes. Agonist peptides were used at concentrations of 0.01, 0.1, 0.5, 1.0, 2.5, 5.0, 10.0 and 20.0 μM. After 3 days cells were pulsed with 1 μCi of [^3H]thymidine added to each well and after 18 hours thymidine incorporation was measured. The sequences of peptides used were: PCC50V (AEGFSYTVANKNKGIT), PCC50L (AEGFSYTLANKNKGIT), PCC50V54A (AEGFSYTVANKAKGIT), PCC46A49A50V54A (AEGASYAVANKAKGIT), PCC50F54A (AEGFSYTFANKAKGIT), neutral ceramidase (AGFFQYTLYILASEG) and IgGVH (NADFKTPATLTVDKA). […] Proliferation was measured after 3 days by thymidine incorporation by pulsing cells with 1 μCi of [^3H] thymidine for 18 hours. […] For antagonism assays the percent of proliferation inhibition was calculated as 100-100*(thymidine incorporation in the presence of antagonist/thymidine incorporation in the absence of antagonist) (Lyons et al., 1996).

Compound: Ova(323-339): peptide present in the ovalbumin protein; agonist for the OT-II TCR (KISQAVHAAHAEINEAG; UniProt P01012 323-339, looked up, fragment)
- effect on thymic selection [1]: had no effect on thymic selection
- negative selection of transgenic thymocytes ([2]; high dose (100 μg and above)): induced negative selection
- selection of CD4^+ thymocytes ([2]; low dose (5-20 μg)): induced selection of a significant number of CD4^+ thymocytes
- response of selected thymocytes to selecting peptide ([2]; mouse, in vivo): continued to respond to stimulation by selecting peptide; also recorded: retain their ability to respond to selecting peptide
- selection of transgenic CD4^+ thymocytes ([2]; single injection of 10 μg, 48 and 72 hours): initiates selection of transgenic CD4^+Vβ5^+ thymocytes

Compound: CC[C@H](C)[C@H](NC(=O)CNC(=O)[C@H](CCCCN)NC(=O)[C@H](CC(N)=O)NC(=O)[C@H](CCCCN)NC(=O)[C@H](CC(N)=O)NC(=O)[C@H](C)NC(=O)[C@H](CCC(=O)O)NC(=O)[C@@H](NC(=O)[C@H](Cc1ccc(O)cc1)NC(=O)[C@H](CO)NC(=O)[C@H](Cc1ccccc1)NC(=O)CNC(=O)[C@H](CCC(=O)O)NC(=O)[C@H](C)N)[C@@H](C)O)C(=O)N[C@H](C(=O)O)[C@@H](C)O [PCC50E] (H-AEGFSYTEANKNKGIT-OH)
- number of CD4^+ thymocytes positively selected by PCC50V54A on co-injection of antagonist ([1]; 3 μg antagonist + 3 μg PCC50V54A, four days later): significantly reduced

Compound: AEGFSYTLANKNKGIT [PCC50L, analog of PCC(43-58)]
- agonist potency / agonist properties [3]: Strong agonists
- recognition by the transgenic TCR / stimulation of transgenic cells [3]: recognizes; also recorded: stimulate
- negative selection / deletion of transgenic thymocytes (transgenic thymocytes): induced profound negative selection
- positive selection of transgenic thymocytes [1]: restored positive selection

Compound: NADFKTPATLTVDKA [IgGVH, reference compound]
- percentage of CD4^+ single positive cells (thymus) ([1]; 50 μg i.p.): 0.8±0.4 percentage
- effect on thymic selection [1]: had no effect on thymic selection
- percentage of CD4^+ positive cells (lymph node) (lymph node cells): 2.4±0.8 percentage

Compound: AEGFSYTVANKNKGIT [PCC50V, analog of PCC(43-58)]
- agonist potency / agonist properties [3]: moderate agonist
- recognition by the transgenic TCR / stimulation of transgenic cells [3]: recognizes; also recorded: stimulate
- negative selection of transgenic thymocytes (transgenic thymocytes; 20 μg i.p., thymus cellularity, annexin V, TUNNEL): did not induce negative selection
- negative selection / deletion of transgenic thymocytes (transgenic thymocytes): induced only marginal deletion; also recorded: induced only limited deletion
- positive selection of transgenic thymocytes [1]: restored positive selection

Compound: AEGFSYTFANKAKGIT [PCC50F54A, analog of PCC(43-58); agonist]
- recognition by the transgenic TCR / stimulation of transgenic cells [3]: stimulate
- positive selection of transgenic thymocytes [1]: restored positive selection

Compound: AGFFQYTLYILASEG [neutral ceramidase]
- agonist potency / agonist properties [3]: weak agonist
- positive selection of transgenic CD4^+ thymocytes ([1]; 50 μg i.p.): weak positive selection; also recorded: mediates positive selection
- percentage of CD4^+ single positive cells (thymus) ([1]; 50 μg i.p.): 1.7±0.6 percentage
- CD4^+ cells in peripheral lymph nodes (lymph node cells; after i.p. injection, about two weeks): appeatence of CD4^+ lymphocytes in the peripheral lymph nodes
- percentage of CD4^+ positive cells (lymph node) (lymph node cells): 7.6±1.8 percentage
- response of peptide selected CD4^+ cells to agonist peptides in vitro [4]: weakly proliferated; also recorded: respond in vitro

Compound: AEGASYAVANKAKGIT [PCC46A49A50V54A, analog of PCC(43-58); agonist]
- recognition by the transgenic TCR / stimulation of transgenic cells [3]: recognizes
- positive selection of transgenic thymocytes [1]: restored positive selection
